Test results: patent US9102591B2, “Benzamides” (H. Lundbeck A/S, priority 2012, dated 2015)

Target: P2X7 receptor (Homo sapiens (Human), UniProt Q99572)
Assay: P2X7 FLIPR assay (BzATP-stimulated calcium fluorescence, antagonist IC50)
Assay type: cell-based
Summary of the method: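 Cells expressing P2X7 receptor (human, rat or mouse), plated 24 hours earlier in low-serum medium, loaded with Fluo-4 NW dye (30 min 37° C, 30 min room temperature).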

P2X7 receptor, sequence (Q99572 whole entry): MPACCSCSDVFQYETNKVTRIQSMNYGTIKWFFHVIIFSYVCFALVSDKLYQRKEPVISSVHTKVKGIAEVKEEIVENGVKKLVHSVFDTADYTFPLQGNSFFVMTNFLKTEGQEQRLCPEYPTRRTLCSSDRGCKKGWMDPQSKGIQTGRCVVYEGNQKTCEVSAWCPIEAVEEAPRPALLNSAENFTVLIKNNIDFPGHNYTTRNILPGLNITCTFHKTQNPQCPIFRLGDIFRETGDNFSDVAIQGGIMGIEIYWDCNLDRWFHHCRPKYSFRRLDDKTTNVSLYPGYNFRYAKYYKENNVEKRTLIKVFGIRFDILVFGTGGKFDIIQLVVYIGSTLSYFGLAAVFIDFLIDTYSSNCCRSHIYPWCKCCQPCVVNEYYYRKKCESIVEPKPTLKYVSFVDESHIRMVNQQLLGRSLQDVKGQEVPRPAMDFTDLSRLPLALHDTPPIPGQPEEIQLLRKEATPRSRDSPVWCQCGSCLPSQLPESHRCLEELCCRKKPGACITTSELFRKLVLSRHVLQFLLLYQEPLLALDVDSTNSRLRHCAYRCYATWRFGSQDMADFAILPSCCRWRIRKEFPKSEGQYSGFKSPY

Compound	IC50
Cc1cccc(C(=O)NCC2(c3ccc(C(F)(F)F)nc3)CCC(F)(F)CC2)c1Cl [2-chloro-N-((4,4-difluoro-1-(6-(trifluoromethyl)pyridin-3-yl)cyclohexyl)methyl)-3-methylbenzamide]	0.54 nM
O=C(NCC(CC1(C(F)(F)F)CC1)c1cnc(C(F)(F)F)nc1)c1cccc(F)c1Cl (single isomer, unassigned; (-)) [(−)2-chloro-3-fluoro-N-[3-[1-(trifluoromethyl)cyclopropyl]-2] [(−)2-chloro-3-fluoro-N-[3-[1-(trifluoromethyl)cyclopropyl]-2-[2-(trifluoromethyl)pyrimidin-5-yl]propyl]benzamide]	29 nM
O=C(NCC(CC1CC1)c1cnc(C(F)(F)F)nc1)c1cccc(F)c1Cl (single isomer, unassigned; (+)) [(+)2-chloro-N-[3-cyclopropyl-2-[2-(trifluoromethyl)pyrimidin] [(+)2-chloro-N-[3-cyclopropyl-2-[2-(trifluoromethyl)pyrimidin-5-yl]propyl]-3-fluoro-benzamide]	50 nM
O=C(NCC(CC1CC1)c1ccc(C(F)(F)F)nc1)c1cccc(Cl)c1F (centres unmarked) [3-chloro-N-(3-cyclopropyl-2-(6-(trifluoromethyl)pyridin-3-yl)propyl)-2-fluorobenzamide]	660 nM
O=C(NCC(c1cnc(C(F)(F)F)nc1)C1CCOCC1)c1ccccc1Cl (single isomer, unassigned; (+)) [(+)2-chloro-N-[2-tetrahydropyran-4-yl-2-[2-(trifluoromethyl)] [(+)2-chloro-N-[2-tetrahydropyran-4-yl-2-[2-(trifluoromethyl)pyrimidin-5-yl]ethyl]benzamide]	51 nM
O=C(NCC(CC1CC1)c1ccc(C(F)(F)F)nc1)c1cccc(C(F)(F)F)c1Cl (single isomer, unassigned; (+)) [(+)2-chloro-N-[3-cyclopropyl-2-[6-(trifluoromethyl)-3-pyridy] [(+)2-chloro-N-[3-cyclopropyl-2-[6-(trifluoromethyl)-3-pyridyl]propyl]-3-(trifluoromethyl)benzamide]	1100 nM
O=C(NCC(CC1CC1)c1ccc(C(F)(F)F)nc1)c1c(Cl)cccc1Cl (centres unmarked) [2,6-dichloro-N-(3-cyclopropyl-2-(6-(trifluoromethyl)pyridin-] [2,6-dichloro-N-(3-cyclopropyl-2-(6-(trifluoromethyl)pyridin-3-yl)propyl)benzamide]	0.71 nM
O=C(NCC(CC1CC1)c1ccc(C(F)(F)F)nc1)c1c(F)cccc1Cl (single isomer, unassigned; (-)) [(−)2-chloro-N-[3-cyclopropyl-2-[6-(trifluoromethyl)-3-pyridy] [(−)2-chloro-N-[3-cyclopropyl-2-[6-(trifluoromethyl)-3-pyridyl]propyl]-6-fluoro-benzamide]	2.1 nM
Cc1ccc(C(CNC(=O)c2cccc(Cl)c2Cl)CC2CC2)c(C)n1 (centres unmarked) [2,3-dichloro-N-[3-cyclopropyl-2-(2,6-dimethyl-3-pyridyl)propyl]benzamide]	1300 nM
O=C(NCC1(c2ccc(C(F)(F)F)nc2)CCC(F)(F)CC1)c1cccc(Cl)c1F [3-chloro-N-((4,4-difluoro-1-(6-(trifluoromethyl)pyridin-3-yl)cyclohexyl)methyl)-2-fluorobenzamide]	3.2 nM
O=C(NCC(c1ccncc1)c1cnc(C(F)(F)F)nc1)c1cccc(Cl)c1Cl (centres unmarked) [2,3-dichloro-N-[2-(4-pyridyl)-2-[2-(trifluoromethyl)pyrimidin-5-yl]ethyl]benzamide]	6.2 nM
CC(C)(O)c1ccc(C2(CNC(=O)c3ccccc3Cl)CCC(F)(F)CC2)cn1 [2-chloro-N-[[4,4-difluoro-1-[6-(1-hydroxy-1-methyl-ethyl)-3-pyridyl]cyclohexyl]methyl]benzamide]	380 nM
O=C(NCC(CC1CC1)c1cnc(C(F)(F)F)nc1)c1c(Cl)cccc1Cl (single isomer, unassigned; (+)) [(+)2,6-dichloro-N-[3-cyclopropyl-2-[2-(trifluoromethyl)pyrim] [(+)2,6-dichloro-N-[3-cyclopropyl-2-[2-(trifluoromethyl)pyrimidin-5-yl]propyl]benzamide]	3.8 nM
O=C(NCC1(c2cnc(C(F)(F)F)nc2)CCC(F)(F)CC1)c1cccc(Cl)c1Cl [2,3-dichloro-N-[[4,4-difluoro-1-[2-(trifluoromethyl)pyrimidin-5-yl]cyclohexyl]methyl]benzamide]	0.95 nM
O=C(NCC1(c2cnc(C(F)(F)F)nc2)CCOCC1)c1c(F)cccc1Cl [2-chloro-6-fluoro-N-[[4-[2-(trifluoromethyl)pyrimidin-5-yl]tetrahydropyran-4-yl]methyl]benzamide]	1600 nM
O=C(NCC(c1ccc(F)cc1)c1ccc(C(F)(F)F)nc1)c1ccccc1Cl (single isomer, unassigned; (+)) [(+)2-chloro-N-[2-(4-fluorophenyl)-2-[6-(trifluoromethyl)-3-p] [(+)2-chloro-N-[2-(4-fluorophenyl)-2-[6-(trifluoromethyl)-3-pyridyl]ethyl]benzamide]	2.2 nM

Compound	IC50
O=C(NCC(CC1CC1)c1ccc(C(F)(F)F)nc1)c1cccc(Cl)c1Cl (single isomer, unassigned; (-)) [(−)2,3-dichloro-N-[3-cyclopropyl-2-[6-(trifluoromethyl)-3-py] [(−)2,3-dichloro-N-[3-cyclopropyl-2-[6-(trifluoromethyl)-3-pyridyl]propyl]benzamide]	0.31 nM
Cc1ncc(C(CNC(=O)c2c(F)cccc2Cl)C2CCOCC2)cn1 (centres unmarked) [2-chloro-6-fluoro-N-[2-(2-methylpyrimidin-5-yl)-2-tetrahydropyran-4-yl-ethyl]benzamide]	1900 nM
CC(CNC(=O)c1ccccc1Cl)(CC1CC1)c1cnc(C(F)(F)F)nc1 (single isomer, unassigned; (-)) [(−)2-chloro-N-[3-cyclopropyl-2-methyl-2-[2-(trifluoromethyl)] [(−)2-chloro-N-[3-cyclopropyl-2-methyl-2-[2-(trifluoromethyl)pyrimidin-5-yl]propyl]benzamide]	17 nM
O=C(NCC(c1ccc(F)cc1)c1ccc(C(F)(F)F)nc1)c1cccc(Cl)c1Cl (single isomer, unassigned; (-)) [(−)2,3-dichloro-N-[2-(4-fluorophenyl)-2-[6-(trifluoromethyl)] [(−)2,3-dichloro-N-[2-(4-fluorophenyl)-2-[6-(trifluoromethyl)-3-pyridyl]ethyl]benzamide]	9.4 nM
Cc1ncc(C(CNC(=O)c2c(F)cccc2Cl)C2CCC(F)(F)CC2)cn1 (centres unmarked) [2-chloro-N-[2-(4,4-difluorocyclohexyl)-2-(2-methylpyrimidin-5-yl)ethyl]-6-fluoro-benzamide]	150 nM
O=C(NCC(c1ccc(Cl)cc1)C1CCOCC1)c1c(F)cccc1Cl (centres unmarked) [2-chloro-N-[2-(4-chlorophenyl)-2-tetrahydropyran-4-yl-ethyl]-6-fluoro-benzamide]	30 nM
O=C(NCC(CC1(C(F)(F)F)CC1)c1ccc(C(F)(F)F)nc1)c1cccc(F)c1Cl (single isomer, unassigned; (+)) [(+)2-chloro-3-fluoro-N-[3-[1-(trifluoromethyl)cyclopropyl]-2] [(+)2-chloro-3-fluoro-N-[3-[1-(trifluoromethyl)cyclopropyl]-2-[6-(trifluoromethyl)-3-pyridyl]propyl]benzamide]	7.2 nM
COc1ccc(C2(CNC(=O)c3ccccc3C)CCCC2)cc1 [N-[1-(4-Methoxy-phenyl)-cyclopentylmethyl]-2-methyl-benzamide]	1400 nM
O=C(NCC1(c2ccc(Cl)cc2)CCOCC1)c1cccc(C(F)(F)F)c1F [N-[4-(4-Chloro-phenyl)-tetrahydro-pyran-4-ylmethyl]-2-fluoro-3-trifluoromethyl-benzamide]	4300 nM
O=C(NCC(c1ccc(F)cc1)c1cnc(C(F)(F)F)nc1)c1ccccc1Cl (single isomer, unassigned; (-)) [(−)2-chloro-N-[2-(4-fluorophenyl)-2-[2-(trifluoromethyl)pyri] [(−)2-chloro-N-[2-(4-fluorophenyl)-2-[2-(trifluoromethyl)pyrimidin-5-yl]ethyl]benzamide]	2 nM
O=C(NCC(c1cnc(C(F)(F)F)nc1)C1CCOCC1)c1ccccc1Cl (single isomer, unassigned; (-)) [(−)2-chloro-N-[2-tetrahydropyran-4-yl-2-[2-(trifluoromethyl)] [(−)2-chloro-N-[2-tetrahydropyran-4-yl-2-[2-(trifluoromethyl)pyrimidin-5-yl]ethyl]benzamide]	56 nM
COc1ccc(F)c(C(=O)NCC2(c3ccc(F)nc3)CCC(F)(F)CC2)c1 [N-((4,4-difluoro-1-(6-fluoropyridin-3-yl)cyclohexyl)methyl)-2-fluoro-5-methoxybenzamide]	65 nM
O=C(NCC1(c2ccc(F)nc2)CCC(F)(F)CC1)c1ccccc1F [N-((4,4-difluoro-1-(6-fluoropyridin-3-yl)cyclohexyl)methyl)-] [N-((4,4-difluoro-1-(6-fluoropyridin-3-yl)cyclohexyl)methyl)-2-fluorobenzamide]	190 nM
CC(C)(O)c1ccc(C(CNC(=O)c2cccc(Cl)c2Cl)CC2CC2)cn1 (single isomer, unassigned; (-)) [(−)2,3-dichloro-N-[3-cyclopropyl-2-[6-(1-hydroxy-1-methyl-et] [(−)2,3-dichloro-N-[3-cyclopropyl-2-[6-(1-hydroxy-1-methyl-ethyl)-3-pyridyl]propyl]benzamide]	30 nM
O=C(NCC(CC1CC1)c1ccc(C(F)(F)F)nc1)c1cccc(C(F)(F)F)c1Cl (single isomer, unassigned; (-)) [(−)2-chloro-N-[3-cyclopropyl-2-[6-(trifluoromethyl)-3-pyridy] [(−)2-chloro-N-[3-cyclopropyl-2-[6-(trifluoromethyl)-3-pyridyl]propyl]-3-(trifluoromethyl)benzamide]	110 nM
O=C(NCC(CC1CC1)c1ccc(C(F)F)nc1)c1cccc(F)c1Cl (single isomer, unassigned; (-)) [(−)2-chloro-N-[3-cyclopropyl-2-[6-(difluoromethyl)-3-pyridyl] [(−)2-chloro-N-[3-cyclopropyl-2-[6-(difluoromethyl)-3-pyridyl]propyl]-3-fluoro-benzamide]	19 nM
